Key:
C-FLAG-UHRF1-FL = biological target: T1, C-FLAG-UHRF1-FL (Homo sapiens, UniProt Q96T88); assay: Intrinsic tryptophan fluorescence of C-FLAG-UHRF1-FL; format: binding; conditions: 5 µM protein
T1 construct: His6-UHRF1-full length (His6-UHRF1-FL); His (N); made in house; host or cells: Rosetta (DE3) E. coli, pMCSG7
T1 sequence (Q96T88 1-793): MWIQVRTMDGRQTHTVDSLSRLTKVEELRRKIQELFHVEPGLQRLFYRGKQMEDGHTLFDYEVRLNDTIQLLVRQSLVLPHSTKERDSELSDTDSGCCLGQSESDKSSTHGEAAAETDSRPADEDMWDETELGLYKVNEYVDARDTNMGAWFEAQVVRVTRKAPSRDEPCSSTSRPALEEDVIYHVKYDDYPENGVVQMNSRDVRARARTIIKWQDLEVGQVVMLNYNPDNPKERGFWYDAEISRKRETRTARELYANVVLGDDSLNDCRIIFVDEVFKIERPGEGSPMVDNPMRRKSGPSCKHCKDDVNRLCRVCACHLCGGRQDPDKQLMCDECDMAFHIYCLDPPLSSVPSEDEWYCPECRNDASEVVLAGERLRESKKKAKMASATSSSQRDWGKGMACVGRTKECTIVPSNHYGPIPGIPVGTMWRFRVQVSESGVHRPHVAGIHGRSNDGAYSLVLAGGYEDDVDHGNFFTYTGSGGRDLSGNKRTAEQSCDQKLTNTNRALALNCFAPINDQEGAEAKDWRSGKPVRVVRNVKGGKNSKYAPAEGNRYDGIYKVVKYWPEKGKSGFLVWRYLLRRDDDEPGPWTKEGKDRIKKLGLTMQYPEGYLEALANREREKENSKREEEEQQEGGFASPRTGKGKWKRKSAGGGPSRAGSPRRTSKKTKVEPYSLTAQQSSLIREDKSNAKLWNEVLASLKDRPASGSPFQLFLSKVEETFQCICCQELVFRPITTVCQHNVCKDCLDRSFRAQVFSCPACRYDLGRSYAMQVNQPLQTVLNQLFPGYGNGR
Method: (§1) The untagged TTD was diluted to 30 µM by buffer (50 mM sodium phosphate, pH 7.5, 150 mM NaCl) with or without 60 µM of H3K9me3 peptide (1–20) (Anaspec). 10 µL of diluted TTD was added into 384-well flat bottom black plate (Greiner, Cat# 781086). […] The final concentration of TTD was 15 µM and the H3K9me3 peptide (if included) was 30 µM. The experiment was performed at room temperature. […] After compound addition, the intrinsic tryptophan fluorescence was analyzed by the Tecan Infinite M1000 plate reader (excitation 280 nm, emission 334 nm). […] Tryptophan fluorescence monitors 2 , 4 - lutidine binding to His 6 - TTD, His 6 - TTD - PHD, and C - FLAG - UHRF 1 - FL . 2 , 4 - Lutidine dose - dependently quenched the tryptophan fluorescence of TTD (purple circle), while only started to show quenching effect against His 6 - TTD - PHD at mM concentration (blue diamond) . 2 , 4 - Lutidine had no effect on the fluorescence of C - FLAG - UHRF 1 - FL and the control USP 7 - UBL 1 / 2 protein . n= 3 for each data point . (Note : the standard deviation error bars are included, but the error values are often extremely small in this assay) . […]

His6-TTD-PHD = biological target: T2, His6-TTD-PHD (Homo sapiens, UniProt Q96T88); assay: Intrinsic tryptophan fluorescence of His6-TTD-PHD; format: binding; conditions: 3.2 µM protein
T2 construct: made in house; host or cells: Rosetta (DE3) E. coli, pMCSG7
T2 sequence (Q96T88 123-366): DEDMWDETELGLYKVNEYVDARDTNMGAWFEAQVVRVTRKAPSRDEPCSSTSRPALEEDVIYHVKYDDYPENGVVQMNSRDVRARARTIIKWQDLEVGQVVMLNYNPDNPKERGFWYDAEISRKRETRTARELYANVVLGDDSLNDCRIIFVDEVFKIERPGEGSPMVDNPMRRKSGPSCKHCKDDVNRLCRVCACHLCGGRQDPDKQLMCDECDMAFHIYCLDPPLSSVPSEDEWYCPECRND
Method: as §1

## Cc1ccnc(C)c1 [2,4-lutidine]
C-FLAG-UHRF1-FL
  quenching of C-FLAG-UHRF1 tryptophan fluorescence (in words): did not quench
His6-TTD-PHD
  quenching of His6-TTD-PHD tryptophan fluorescence (in words): only at close to mM concentrations
